Laboratory results as given in ChEMBL document CHEMBL3727346, “6-(pyridinyl)-4-pyrimidone derivates as tau protein kinase 1 inhibitors” (2011).
Calls of active or inactive are those of the source. The rule behind the calls is not given here.

Molecular target: Glycogen synthase kinase-3 beta splice variant X1 (Bos taurus) (UniProt A0A059UE90)
Assay: Inhibition of bovine cerebral TPK1 assessed as reduction in P-GS1 phosphorylation using [32gammaP]ATP incubated for 2 hrs by liquid scintillation counting method

Row | inhibition | SMILES
1 | Active | COc1ccc(C#N)cc1[C@H]1CN(c2nc(-c3ccncc3F)cc(=O)n2C)CCO1
2 | Active | Cn1c(N2CCO[C@@H](c3ccc(NC4CCCC4)cc3)C2)nc(-c2ccncc2F)cc1=O
3 | Active | CC(=O)c1ccc([C@H]2CN(c3nc(-c4ccncc4F)cc(=O)n3C)CCO2)cc1
4 | Active | CN(C)CCOc1ccc([C@H]2CN(c3nc(-c4ccncc4F)cc(=O)n3C)CCO2)cc1
5 | Active | Cn1c(N2CCO[C@@H](c3ccc(N4CC[C@@H](O)C4)cc3)C2)nc(-c2ccncc2F)cc1=O
6 | Active | CC(C)c1ccc([C@H]2CN(c3nc(-c4ccncc4F)cc(=O)n3C)CCO2)cc1
7 | Active | CN(C)CCCOc1ccc([C@H]2CN(c3nc(-c4ccncc4F)cc(=O)n3C)CCO2)cc1
8 | Active | CCN(CC)Cc1ccc([C@H]2CN(c3nc(-c4ccncc4F)cc(=O)n3C)CCO2)cc1
9 | Active | Cn1c(N2CCO[C@@H](c3ccc(N4CCNC4=O)cc3)C2)nc(-c2ccncc2F)cc1=O
10 | Active | COc1cc(Cl)ccc1[C@H]1CN(c2nc(-c3ccncc3F)cc(=O)n2C)CCO1
11 | Active | Cn1c(N2CCO[C@@H](c3ccc(Nc4ccccn4)cc3)C2)nc(-c2ccncc2F)cc1=O
12 | Active | COc1ccc(N)cc1[C@H]1CN(c2nc(-c3ccncc3F)cc(=O)n2C)CCO1
13 | Active | Cn1c(N2CCO[C@@H](c3ccc(C(=O)NCCO)cc3)C2)nc(-c2ccncc2F)cc1=O
14 | Active | Cn1c(N2CCO[C@@H](c3ccc(O)cc3)C2)nc(-c2ccncc2F)cc1=O
15 | Active | Cn1c(N2CCO[C@@H](c3ccc(F)c(N)c3)C2)nc(-c2ccncc2F)cc1=O
16 | Active | CNC(=S)Nc1ccc([C@H]2CN(c3nc(-c4ccncc4F)cc(=O)n3C)CCO2)cc1
17 | Active | COc1cc(N(C)C)ccc1[C@H]1CN(c2nc(-c3ccncc3F)cc(=O)n2C)CCO1

Row | inhibition | SMILES
18 | Active | Cn1c(N2CCOC(c3ccc4c(c3)C(C)(C)CC(=O)N4)C2)nc(-c2ccncc2F)cc1=O (racemic)
19 | Active | COc1ccc(C2(O)CCN(C)CC2)cc1[C@H]1CN(c2nc(-c3ccncc3F)cc(=O)n2C)CCO1
20 | Active | Cn1c(N2CCOC(c3ccccc3OCCCN)C2)nc(-c2ccncc2F)cc1=O (stereo unspecified)
21 | Active | CCN(CC)CCCOc1ccc([C@H]2CN(c3nc(-c4ccncc4F)cc(=O)n3C)CCO2)cc1
22 | Active | COc1ccc([C@H]2CN(c3nc(-c4ccncc4F)cc(=O)n3C)CCO2)cc1
23 | Active | Cn1c(N2CCOC(c3ccc(Br)cc3)C2)nc(-c2ccncc2F)cc1=O (stereo unspecified)
24 | Active | CN(C)S(=O)(=O)c1ccc([C@H]2CN(c3nc(-c4ccncc4F)cc(=O)n3C)CCO2)cc1
25 | Active | Cn1c(N2CCO[C@@H](c3ccc(N4CCCC4)cc3)C2)nc(-c2ccncc2F)cc1=O
26 | Active | CC(=O)N(c1ccc([C@H]2CN(c3nc(-c4ccncc4F)cc(=O)n3C)CCO2)cc1)C(C)C
27 | Active | Cc1nnc(-c2ccc([C@H]3CN(c4nc(-c5ccncc5F)cc(=O)n4C)CCO3)cc2)o1
28 | Active | CNc1ccc([C@H]2CN(c3nc(-c4ccncc4F)cc(=O)n3C)CCO2)cc1
29 | Active | Cn1c(N2CCOC(c3ccc4c(c3)CC(=O)N4)C2)nc(-c2ccncc2F)cc1=O (racemic)
30 | Active | Cn1c(N2CCO[C@@H](c3ccc(CO)cc3)C2)nc(-c2ccncc2F)cc1=O
31 | Active | Cn1c(N2CCO[C@@H](c3cccc(N)c3)C2)nc(-c2ccncc2F)cc1=O
32 | Active | CC(C)Nc1ccc([C@H]2CN(c3nc(-c4ccncc4F)cc(=O)n3C)CCO2)cc1
33 | Active | COc1ccc(C(C)(C)O)cc1[C@H]1CN(c2nc(-c3ccncc3F)cc(=O)n2C)CCO1
34 | Active | Cn1c(N2CCO[C@@H](c3ccc(NC(=O)C4CC4)cc3)C2)nc(-c2ccncc2F)cc1=O

Continued, compound first:

Row | SMILES | inhibition
35 | Cn1c(N2CCO[C@@H](c3ccc(OC4CCN(C(=O)c5ccccc5)CC4)cc3)C2)nc(-c2ccncc2F)cc1=O | Active
36 | Cn1c(N2CCO[C@@H](c3ccc(NC4CCCCC4)cc3)C2)nc(-c2ccncc2F)cc1=O | Active
37 | Cn1c(N2CCN[C@@H](c3ccc(N4CCCC4)cc3)C2)nc(-c2ccncc2F)cc1=O | Active
38 | COc1ccc(-c2ccc([C@H]3CN(c4nc(-c5ccncc5F)cc(=O)n4C)CCN3)cc2)cc1OC | Active
39 | Cn1c(N2CCO[C@@H](c3ccc(N(CCO)C4CCCCC4)cc3)C2)nc(-c2ccncc2F)cc1=O | Active
40 | Cn1c(N2CCN[C@@H](c3ccc(N4CCC(O)C4)cc3)C2)nc(-c2ccncc2F)cc1=O (stereo partly specified) | Active
41 | C[C@@H]1CN(c2ccc([C@H]3CN(c4nc(-c5ccncc5F)cc(=O)n4C)CCO3)cc2)C[C@H](C)N1 | Active
42 | CC(=O)N[C@H]1CCN(c2ccc([C@H]3CN(c4nc(-c5ccncc5F)cc(=O)n4C)CCO3)cc2)C1 | Active
43 | Cn1c(N2CCO[C@@H](c3ccc(N4CC[C@@H](N5CCCC5)C4)cc3)C2)nc(-c2ccncc2F)cc1=O | Active
44 | CN1CCN(CC(=O)Nc2ccc([C@H]3CN(c4nc(-c5ccncc5F)cc(=O)n4C)CCO3)cc2)CC1 | Active
45 | Cn1c(N2CCN[C@@H](c3ccc(N4CC[C@@H](O)C4)cc3)C2)nc(-c2ccncc2F)cc1=O | Active
46 | CN(C)C1CCN(c2ccc([C@H]3CN(c4nc(-c5ccncc5F)cc(=O)n4C)CCO3)cc2)CC1 | Active
47 | Cn1c(N2CCN[C@@H](c3ccc(N4CC[C@H](C(N)=O)C4)cc3)C2)nc(-c2ccncc2F)cc1=O | Active
48 | CSc1ccc(-c2ccc([C@H]3CN(c4nc(-c5ccncc5F)cc(=O)n4C)CCN3)cc2)cc1 | Active
49 | CCCCOc1ccc(-c2ccc([C@H]3CN(c4nc(-c5ccncc5F)cc(=O)n4C)CCN3)cc2)cc1 | Active
50 | Cn1c(N2CCO[C@@H](c3ccc(NC(=O)C4CCCC4)cc3)C2)nc(-c2ccncc2F)cc1=O | Active
51 | Cn1c(N2CCN[C@@H](c3ccc(-c4ccc(S(C)(=O)=O)cc4)cc3)C2)nc(-c2ccncc2F)cc1=O | Active
52 | Cn1c(N2CCN[C@@H](c3ccc(-c4ccc(C(F)(F)F)cc4)cc3)C2)nc(-c2ccncc2F)cc1=O | Active
53 | Cn1c(N2CCN[C@@H](c3ccc(N4CCC(N5CCCCC5)CC4)cc3)C2)nc(-c2ccncc2F)cc1=O | Active
54 | Cn1c(N2CCO[C@@H](c3ccc(NC(=O)CN4CCCCC4)cc3)C2)nc(-c2ccncc2F)cc1=O | Active
55 | Cn1c(N2CCO[C@@H](c3ccc(C(=O)NCc4ccccc4)cc3)C2)nc(-c2ccncc2F)cc1=O | Active
56 | CC(C)N1CCN(c2ccc([C@H]3CN(c4nc(-c5ccncc5F)cc(=O)n4C)CCO3)cc2)CC1 | Active
57 | CN(C)[C@H]1CCN(c2ccc([C@H]3CN(c4nc(-c5ccncc5F)cc(=O)n4C)CCO3)cc2)C1 | Active
58 | CN(C)[C@@H]1CCN(c2ccc([C@H]3CN(c4nc(-c5ccncc5F)cc(=O)n4C)CCO3)cc2)C1 | Active

Row | SMILES | inhibition
59 | CN(c1ccc([C@H]2CN(c3nc(-c4ccncc4F)cc(=O)n3C)CCO2)cc1)C1C2CC3CC(C2)CC1C3 (stereo partly specified) | Active
60 | Cn1c(N2CCO[C@@H](c3ccc(NS(=O)(=O)Cc4ccccc4)cc3)C2)nc(-c2ccncc2F)cc1=O | Active
61 | Cn1c(N2CCO[C@@H](c3ccc(NC4CCc5ccccc54)cc3)C2)nc(-c2ccncc2F)cc1=O (stereo partly specified) | Active
62 | Cn1c(N2CCN[C@@H](c3ccc(-c4ccc(C(C)(C)C)cc4)cc3)C2)nc(-c2ccncc2F)cc1=O | Active
63 | Cn1c(N2CCO[C@@H](c3ccc(N4CC[C@H](N5CCOCC5)C4)cc3)C2)nc(-c2ccncc2F)cc1=O | Active
64 | Cn1c(N2CCO[C@@H](c3ccc(N4CCC(O)CC4)cc3)C2)nc(-c2ccncc2F)cc1=O | Active
65 | CN1CCC2(CCN(c3ccc([C@H]4CN(c5nc(-c6ccncc6F)cc(=O)n5C)CCN4)cc3)CC2)C1 | Active
66 | Cn1c(N2CCO[C@@H](c3ccc(N(C4CCCCC4)S(=O)(=O)c4ccccc4)cc3)C2)nc(-c2ccncc2F)cc1=O | Active
67 | Cn1c(N2CCO[C@@H](c3ccc(N(c4ccccn4)c4ccccn4)cc3)C2)nc(-c2ccncc2F)cc1=O | Active
68 | Cn1c(N2CCN[C@@H](c3ccc(-c4ccc(Cl)cc4Cl)cc3)C2)nc(-c2ccncc2F)cc1=O | Active
69 | Cn1c(N2CCO[C@@H](c3ccc(NC(=O)N4CCOCC4)cc3)C2)nc(-c2ccncc2F)cc1=O | Active
70 | Cn1c(N2CCO[C@@H](c3ccc(C(=O)N4CCCCC4)cc3)C2)nc(-c2ccncc2F)cc1=O | Active
71 | Cn1c(N2CCO[C@@H](c3ccc(OC[C@@H](O)CN4CCCC4)cc3)C2)nc(-c2ccncc2F)cc1=O | Active
72 | C[C@@H]1CN(c2ccc([C@H]3CN(c4nc(-c5ccncc5F)cc(=O)n4C)CCN3)cc2)C[C@H](C)O1 | Active
73 | CC(C)c1ccc(-c2ccc([C@H]3CN(c4nc(-c5ccncc5F)cc(=O)n4C)CCN3)cc2)cc1 | Active
74 | Cn1c(N2CCNC(c3ccc(N4CCNCC4)cc3)C2)nc(-c2ccncc2F)cc1=O (stereo unspecified) | Active
75 | Cn1c(N2CCO[C@@H](c3ccc(C(=O)NC4CCCCC4)cc3)C2)nc(-c2ccncc2F)cc1=O | Active
76 | Cn1c(N2CCO[C@@H](c3ccc(N(C4CCCCC4)S(C)(=O)=O)cc3)C2)nc(-c2ccncc2F)cc1=O | Active
77 | CN(C)[C@H]1CCN(c2ccc([C@H]3CN(c4nc(-c5ccncc5F)cc(=O)n4C)CCN3)cc2)C1 | Active
78 | Cn1c(N2CCO[C@@H](c3ccc(NC4C5CC6CC(C5)CC4C6)cc3)C2)nc(-c2ccncc2F)cc1=O (stereo partly specified) | Active
79 | Cn1c(N2CCO[C@@H](c3ccc(OCCN4CCCC4)cc3)C2)nc(-c2ccncc2F)cc1=O | Active
80 | CN(c1ccc([C@H]2CN(c3nc(-c4ccncc4F)cc(=O)n3C)CCO2)cc1)C1CCCC1 | Active
81 | Cn1c(N2CCN[C@@H](c3ccc(N4CCN(CCO)CC4)cc3)C2)nc(-c2ccncc2F)cc1=O | Active
